Laboratory results reported in PMC11864979, “First-in-class ultralong-target-residence-time p38α inhibitors as a mitosis-targeted therapy for colorectal cancer” (Nature Cancer, 2025).
Values joined by “and” are separate entries in the source; they are usually repeats but may differ in a detail not shown here. Equal entries are not always repeated. Where two headings read alike, the source gives them in different places.

What was measured:
HCT-15 = assay: cell viability in human CRC cell line HCT-15; type: cell-based; conditions: Homo sapiens, HCT-15, 96 h, 10.0000 µM, 4 d; read-out: HCT-15 Cell viability (%)
Experimental: (§1) To generate KAP^2D cells, KAP organoids were isolated from Matrigel, fragmented by mechanical dissociation and plated without any extracellular matrix on common cell culture dishes. Phoenix-Eco packaging cells (CRL-3214), HCT-15 (CCL-225), HCT 116 (CCL-247), COLO 205 (CCL-222), LS 174T (CL-188), RKO (CRL-2577) and HT-29 (HTB-38) were obtained from the American Type Culture Collection. The cells were cultured at 37 °C and 7% CO2 with RPMI (KAP^2D cells) or DMEM (other cell lines), supplemented with 10% FBS and penicillin–streptomycin. KAP^2D cells were authenticated using PCR (Kras locus and Trp53 locus). Phoenix-Eco packaging cells and HCT-15, HCT 116, COLO 205, LS 174T, RKO and HT-29 cells were authenticated by the provider using short tandem repeat profiling. No commonly misidentified cell lines were used. Mycoplasma contamination was excluded by a PCR-based analysis.
(§2) For in vitro treatment studies, organoids were mechanically dissociated and digested using TrypLE supplemented with 100 µg ml^−1 DNaseI and 10.5 µM Y-27632 dihydrochloride (Invitrogen) at 37 °C. A total of 1,000–2,000 single cells were plated per well in white 96-well plates (Greiner) in culture medium containing 10% GFR Matrigel or Cultrex BME. The treatment with doxycycline (5 µg ml^−1), pharmacological inhibitors or corresponding volumes of DMSO was started 24 h after plating. Doxycycline was obtained from Sigma-Aldrich. […] Cell viability was measured by means of CellTiter-Glo 3D or CellTiter-Glo 2.0 reagent (Promega) according to the manufacturers’ instructions and the Infinite M Plex reader (Tecan, i-control version 3.9.1 software). Results were normalized to vehicle (DMSO) or to shNC. For cell-doubling assays, the cell number was quantified at the corresponding time points using Guava EasyCyte flow cytometer (Luminex, CytoSoft v5.2 software).

p38α = p38α (Homo sapiens, UniProt Q16539); assay: target residence time (TRT) fluorescence polarization jump-dilution assay; type: binding
Experimental: TRTs were determined using a fluorescence polarization assay kit (Transcreener ADP, BellBrook Labs)[29]. […] The formed complex was ‘jump-diluted’ 1:100 (0.5 µl in 49.5 µl) in a 96-half-area-well plate with ATF2 (82 μM), ATP (40 μM) and ADP as the kinase assay detection reagents. The plate was measured every 3 min for 4 h. Fluorescence polarization was detected using the plate reader VictorNivo (PerkinElmer). The data were analyzed using the integrated rate equation in GraphPad Prism version 7.03 software. The residence time was calculated from the reciprocal value of koff.

subcutaneous KAP CRCs = assay: treatment of subcutaneous KAP tumors in wild-type mice; type: in vivo, mouse; conditions: for Tumor volume (mm³): Fig. 1j, individual tumors
PDO8 = assay: cell viability in patient-derived CRC organoids PDO8; type: cell-based, human
Experimental: as §2

RKO = assay: cell viability in human CRC cell line RKO; type: cell-based; conditions: ED Fig. 9g, replicates
Experimental: as §1, §2

Chain of p38α (Q16539 whole entry): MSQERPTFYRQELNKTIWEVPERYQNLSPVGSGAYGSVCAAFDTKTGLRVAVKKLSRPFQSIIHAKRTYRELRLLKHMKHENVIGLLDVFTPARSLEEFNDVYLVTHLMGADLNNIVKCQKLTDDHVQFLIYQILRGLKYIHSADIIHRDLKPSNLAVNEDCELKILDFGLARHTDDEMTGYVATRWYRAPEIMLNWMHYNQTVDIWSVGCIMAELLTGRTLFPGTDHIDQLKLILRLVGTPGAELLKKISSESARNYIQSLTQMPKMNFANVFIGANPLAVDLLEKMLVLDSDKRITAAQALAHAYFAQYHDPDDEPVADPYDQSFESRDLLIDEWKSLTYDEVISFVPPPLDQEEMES

## O=C(NCCN1CCOCC1)c1ccc2c(c1)C(=O)c1ccc(Nc3ccc(F)c(NC(=O)c4ccccc4)c3)cc1CC2 [Compound 1639]
HCT-15
  viability at 10 µM: 36.6%
p38α; Fig. 2e, replicates
  TRT: 191.2 s and 188.8 s and 173.0 s
p38α; reciprocal of koff
  TRT: 184 s
Subcutaneous KAP CRCs; 0 d of treatment, single tumors, Fig. 3k
  Tumor volume: 56.0 mm³ and 75.0 mm³ and 48.0 mm³ and 80.0 mm³ and 62.5 mm³ and 40.0 mm³ and 64.0 mm³
Subcutaneous KAP CRCs; 20 mg kg^−1 daily, oral gavage
  subcutaneous KAP tumor development (in words): decelerated CRC development
Subcutaneous KAP CRCs; day 0 of treatment
  Tumor volume (mm³): 56.0 mm³ (2×) and 75.0 mm³ and 48.0 mm³ (3×) and 80.0 mm³ and 62.5 mm³ and 40.0 mm³ and 64.0 mm³
Subcutaneous KAP CRCs; day 2 of treatment
  Tumor volume (mm³): 75.0 mm³ (2×) and 87.5 mm³ and 62.5 mm³ and 125.0 mm³ and 56.0 mm³ (2×) and 72.0 mm³ and 48.0 mm³ and 64.0 mm³
Subcutaneous KAP CRCs; day 4 of treatment
  Tumor volume (mm³): 126.0 mm³ (2×) and 64.0 mm³ and 125.0 mm³ and 72.0 mm³ and 75.0 mm³ and 62.5 mm³ (2×) and 80.0 mm³ and 100.0 mm³
Subcutaneous KAP CRCs; day 6 of treatment
  Tumor volume (mm³): 144.0 mm³ (2×) and 75.0 mm³ (2×) and 112.5 mm³ and 80.0 mm³ and 62.5 mm³ and 56.0 mm³ and 87.5 mm³ and 126.0 mm³
Subcutaneous KAP CRCs; day 8 of treatment
  Tumor volume (mm³): 144.0 mm³ (2×) and 162.0 mm³ and 87.5 mm³ (2×) and 112.5 mm³ and 75.0 mm³ (3×) and 100.0 mm³
Subcutaneous KAP CRCs; day 10 of treatment
  Tumor volume (mm³): 162.0 mm³ and 180.0 mm³ and 87.5 mm³ (4×) and 108.0 mm³ (2×) and 75.0 mm³ and 171.5 mm³
Subcutaneous KAP CRCs; day 12 of treatment
  Tumor volume (mm³): 180.0 mm³ (2×) and 220.5 mm³ and 112.5 mm³ (3×) and 100.0 mm³ and 108.0 mm³ and 64.0 mm³ and 126.0 mm³
PDO8; Homo sapiens, 96 h, PDO8, 0.5 µM, 4 d
  viability at 0.5 µM: 82.7%
PDO8; PDO8, 0.5 µM, 4 d, 0.5 µM
  Cell viability (%): 82.90% and 74.01%
PDO8; PDO8, 1 µM, 4 days, 1 µM
  Cell viability (%): 84.53% and 69.94% and 45.12%
RKO; 0.0137 µM, Repetition
  RKO Cell viability (%): 124.75% and 148.62% and 118.75%
RKO; 0.0137 µM, first experiment
  RKO Cell viability (%): 98.53% and 90.98%
RKO; 0.0412 µM, Repetition
  RKO Cell viability (%): 93.50% and 149.21% and 112.61%
RKO; 0.0412 µM, first experiment
  RKO Cell viability (%): 86.59% and 83.94%
RKO; 0.1235 µM, Repetition
  RKO Cell viability (%): 125.44% and 110.57%
RKO; 0.1235 µM, first experiment
  RKO Cell viability (%): 85.12% and 86.17%
RKO; 0.3704 µM, Repetition
  RKO Cell viability (%): 111.28% and 89.40%
RKO; 0.3704 µM, first experiment
  RKO Cell viability (%): 77.62% and 74.11%
RKO; 1.1111 µM, Repetition
  RKO Cell viability (%): 109.66% and 139.17% and 117.64%
RKO; 1.1111 µM, first experiment
  RKO Cell viability (%): 95.27% and 88.88%
RKO; 3.3333 µM, Repetition
  RKO Cell viability (%): 74.32% and 93.61% and 73.54%
RKO; 3.3333 µM, first experiment
  RKO Cell viability (%): 74.12% and 74.43%
RKO; 10.0000 µM, Repetition
  RKO Cell viability (%): 42.39% and 44.96%
RKO; 10.0000 µM, first experiment
  RKO Cell viability (%): 30.57% and 37.00%
RKO; Homo sapiens, RKO, 0.0137 µM, first experiment, read-out: RKO Cell viability (%)
  viability at 0.0137 µM: 96.7%
RKO; Homo sapiens, RKO, 0.0412 µM, first experiment, read-out: RKO Cell viability (%)
  viability at 0.0412 µM: 88.2%
RKO; Homo sapiens, RKO, 0.1235 µM, Repetition, read-out: RKO Cell viability (%)
  viability at 0.1235 µM: 111%
RKO; Homo sapiens, RKO, 0.1235 µM, first experiment, read-out: RKO Cell viability (%)
  viability at 0.1235 µM: 82.2%
RKO; Homo sapiens, RKO, 0.3704 µM, first experiment, read-out: RKO Cell viability (%)
  viability at 0.3704 µM: 86%
RKO; Homo sapiens, RKO, 1.1111 µM, first experiment, read-out: RKO Cell viability (%)
  viability at 1.1111 µM: 85.9%
RKO; Homo sapiens, RKO, 3.3333 µM, first experiment, read-out: RKO Cell viability (%)
  viability at 3.3333 µM: 75%
RKO; Homo sapiens, RKO, 10.0000 µM, Repetition, read-out: RKO Cell viability (%)
  viability at 10 µM: 43.1%
RKO; Homo sapiens, RKO, 10.0000 µM, first experiment, read-out: RKO Cell viability (%)
  viability at 10 µM: 31.2%
